Laboratory results published in patent publication US6780883B2, “Amide inhibitors of microsomal triglyceride transfer protein” (Warner-Lambert Company, priority 1998, dated 2004).
Read-outs that look alike come from different tables or passages of the source.

Experiments:
[1] = target: apolipoprotein(a), [apo(a)], apolipoproteinB-100, [apoB-100], coupling reaction that generates Lp(a) (Homo sapiens, UniProt P04114+P08519); assay: LPABC screen: lipoprotein(a) biochemical coupling assay, Lp(a) content by ELISA; conditions: recombinant apo(a) 17-kringle (293 cell media) + HepG2 conditioned media, 67 minutes, 37° C., 0.3 to 50 μM compound; read-out: Lp ABC IC50
Protocol: LPABC Screen The lipoprotein(a), [Lp(a)], biochemical coupling assay (LPABC) is used to characterize inhibitors of the apolipoprotein(a), [apo(a)], apolipoproteinB-100, [apoB-100], coupling reaction that generates Lp(a). Conditioned media from 293 cells (ATCC CRL-1573), permanently transfected with an apo(a) 17-kringle cDNA expression construct (pcDNA-AMP, In Vitrogen, Carlsbad, Calif.) using standard molecular biology techniques, was used as a source of recombinant apo(a) is diluted 1:3 with phosphate buffered saline (PBS) and 90 μL is pipetted into each well of a 96-well plate and placed into a 37° C. incubator for 10 minutes. Twenty microliters of a 0.3 to 50 μM solution of a compound of the present invention in PBS is added to the warmed plate. Ninety microliters of HepG2 (ATCC HB-8065) cell conditioned media diluted 1:3 with PBS is added to the apo(a)/compound mixture and mixed by pipetting up and down 5 times. The reaction is incubated for 67 minutes in a 37° C. incubator. A 100 μL aliquot of the reaction is removed and assayed for its Lp(a) content by an enzyme linked immunosorbent assay (ELISA).

[2] = tested on: Lp(a) production in HepG2^K17 cells; assay: LPA3 screen: inhibition of Lp(a) production in transfected HepG2 cells, Lp(a) in media by ELISA; format: cell-based; conditions: 8 hours, 0.3 to 50 μM compound, Lp(a) normalized for total protein, read-out: Lp A3 IC50
Protocol: The LPA3 screen is used to identify compounds that inhibit Lp(a) production. This screen employs permanently transfected HepG2 cells (HepG2^K17) that are generated using an apo(a) 17-kringle cDNA expression construct (pcDNA-AMP, In Vitrogen, Carlsbad, Calif.) in accordance with methods that are well-known in molecular biology.
HepG2^K17 cells are seeded in 96-well plates at a density of 75,000 cells per well in 0.25 mL of Dulbecco's Modified Eagle Media (DMEM) containing 10% fetal bovine serum (FBS). Seeded plates are incubated overnight in a 37° C., 5% CO2/95% 02 incubator. The media is removed, replaced with (1) fresh media, or (2) fresh media plus 0.3 to 50 μM of a compound of the present invention in 20 μL of PBS, and the plates returned to the incubator for 8 hours. After the additional 8 hours of incubation, Lp(a) is assayed in the media by ELISA. Cells are digested with 0.5N NaOH overnight and assayed for total protein. Lp(a) values are normalized for total protein content.

## COc1ccc(C(=O)N(Cc2cc(Br)cc(Br)c2)c2ccccc2)cc1OC [Example 43, N-(3,5-Dibromo-benzyl)-3,4-dimethoxy-N-phenyl-benzamide]
[1]
  IC50: > 50 µM
[2]; Homo sapiens
  IC50: 31.6 µM

## COc1ccc(C(=O)N(Cc2ccc3ccccc3c2)c2ccccc2)cc1OC [Example 47, 3,4-Dimethoxy-N-naphthalen-2-ylmethyl-N-phenyl-benzamide]
[1]
  IC50: > 50 µM
[2]; Homo sapiens
  IC50: 17.3 µM

## COc1ccccc1N(Cc1ccc2ccccc2c1)C(=O)c1ccccc1 [Example 85, N-(2-Methoxy-phenyl)-N-naphthalen-2-ylmethyl-benzamide]
[1]
  IC50: > 50 µM
[2]; Homo sapiens
  IC50: 10.2 µM

## CC(C)c1ccc(C(=O)N(Cc2ccc3ccccc3c2)c2cccnc2)cc1 [Example 70, 4-Isopropyl-N-naphthalen-2-ylmethyl-N-pyridin-3-yl-benzamide]
[1]
  IC50: > 50 µM
[2]; Homo sapiens
  IC50: 7.2 µM

## COc1cccc(N(Cc2ccccc2-c2ccccc2)C(=O)c2ccccc2SC(C)C)c1 [Example 130, N-Biphenyl-2-ylmethyl-2-isopropylsulfanyl-N-(3-methoxy-phenyl)-benzamide]
[1]
  IC50: > 50 µM
[2]; Homo sapiens
  IC50: 31.4 µM

## CCOc1ccccc1C(=O)N(Cc1ccc2c(c1)C(C)(C)CCC2(C)C)c1cccnc1 [Example 73, 2-Ethoxy-N-pyridin-3-yl-N-(5,5,8,8-tetramethyl-5,6,7,8-tetrahydro-naphthalen-2-ylmethyl)-benzamide]
[1]
  IC50: > 50 µM
[2]; Homo sapiens
  IC50: 10 µM

## O=C(c1ccccc1SCc1ccccc1)N(Cc1ccccc1-c1ccccc1)c1ccc(Cl)cc1 [Example 132, 2-Benzylsulfanyl-N-biphenyl-2-ylmethyl-N-(4-chloro-phenyl)-benzamide]
[1]
  IC50: > 50 µM
[2]; Homo sapiens
  IC50: > 74 µM

## CCC[S+]([O-])c1ccccc1C(=O)N(Cc1ccccc1-c1ccccc1)c1ccc(OC)cc1 (stereo not shown) [Example 138, N-Biphenyl-2-ylmethyl-N-(4-methoxy-phenyl)-2-(propane-1-sulfinyl)-benzamide]
[1]
  IC50: > 15 µM
[2]; Homo sapiens
  IC50: 7 µM

## COc1cccc(CN(C(=O)c2ccccc2)c2ccccc2OC)c1 [Example 87, N-(3-Methoxy-benzyl)-N-(2-methoxy-phenyl)-benzamide]
[1]
  IC50: > 50 µM
[2]; Homo sapiens
  IC50: 19.2 µM

## COc1cccc(N(Cc2ccccc2-c2ccccc2)C(=O)c2ccccc2SCc2ccccc2)c1 [Example 131, 2-Benzylsulfanyl-N-biphenyl-2-ylmethyl-N-(3-methoxy-phenyl)-benzamide]
[1]
  IC50: > 50 µM
[2]; Homo sapiens
  IC50: 40.1 µM

## N-Biphenyl-2-ylmethyl-N-(3,4-dimethoxy-phenyl)-2-phenylmethanesulfinyl- [Example 143]
[2]
  IC50: 1.6 µM

## CCOc1ccccc1C(=O)N(Cc1cccc(OC)c1)c1cccnc1 [Example 77, 2-Ethoxy-N-(3-methoxy-benzyl)-N-pyridin-3-yl-benzamide]
[1]
  IC50: > 50 µM
[2]; Homo sapiens
  IC50: 44.5 µM

## COc1ccc(CN(C(=O)c2ccc(OC)c(OC)c2)c2ccccc2)cc1 [Example 44, 3,4-Dimethoxy-N-(4-methoxy-benzyl)-N-phenyl-benzamide]
[1]
  IC50: > 50 µM
[2]; Homo sapiens
  IC50: 51.4 µM

## O=C(c1ccccc1Br)N(Cc1ccccc1-c1ccccc1)c1ccccn1 [Example 111, N-Biphenyl-2-ylmethyl-2-bromo-N-pyridin-2-yl-benzamide]
[1]
  IC50: > 50 µM
[2]; Homo sapiens
  IC50: 18.7 µM

## COc1ccc(N(Cc2cc(C(C)(C)C)cc(C(C)(C)C)c2)C(=O)c2cc(OC)c(OC)c(OC)c2)cn1 [Example 66, N-(3,5-Di-tert-butyl-benzyl)-3,4,5-trimethoxy-N-(6-methoxy-pyridin-3-yl)-benzamide]
[1]
  IC50: > 50 µM
[2]; Homo sapiens
  IC50: 19.7 µM

## CCN(CC)CCCc1ccc(N(Cc2cc(Br)cc(Br)c2)C(=O)c2ccccc2)cc1 [Example 53, N-(3,5-Dibromo-benzyl)-N-[4-(3-diethylamino-propyl)-phenyl]-benzamide]
[1]
  IC50: > 50 µM
[2]; Homo sapiens
  IC50: 14.6 µM

## CCCSc1ccccc1C(=O)N(Cc1ccccc1-c1ccccc1)c1ccc(OC)c(OC)c1 [Example 133, N-Biphenyl-2-ylmethyl-N-(3,4-dimethoxy-phenyl)-2-propylsulfanyl-benzamide]
[1]
  IC50: > 50 µM
[2]; Homo sapiens
  IC50: 16.7 µM

## O=C(c1cccc2c1OCO2)N(Cc1ccccc1-c1ccccc1)c1ccncc1 [Example 120, Benzo[1,3]dioxole-4-carboxylic acid biphenyl-2-ylmethyl-pyridin-4-yl-amide]
[1]
  IC50: > 50 µM
[2]; Homo sapiens
  IC50: 18.1 µM

## CCN(CC)CCCc1ccc(N(Cc2ccc(OC)cc2)C(=O)c2ccccc2)cc1 [Example 54, N-[4-(3-Diethylamino-propyl)-phenyl]-N-(4-methoxy-benzyl)-benzamide]
[1]
  IC50: > 50 µM
[2]; Homo sapiens
  IC50: 41.6 µM

## COc1ccc(C(=O)N(Cc2ccccc2-c2ccccc2)c2ccccc2)cc1OC [Example 49, N-Biphenyl-2-ylmethyl-3,4-dimethoxy-N-phenyl-benzamide]
[1]
  IC50: > 50 µM
[2]; Homo sapiens
  IC50: 14 µM

## CCOc1ccccc1C(=O)N(Cc1ccc(OC)cc1)c1cccnc1 [Example 76, 2-Ethoxy-N-(4-methoxy-benzyl)-N-pyridin-3-yl-benzamide]
[1]
  IC50: > 50 µM
[2]; Homo sapiens
  IC50: 33.3 µM

## COc1ccc(N(Cc2ccccc2-c2ccccc2)C(=O)c2cccc3c2OCO3)cn1 [Example 109, Benzo[1,3]dioxole-4-carboxylic acid biphenyl-2-ylmethyl-(6-methoxy-pyridin-3-yl)-amide]
[1]
  IC50: > 50 µM
[2]; Homo sapiens
  IC50: 11.8 µM

## O=C(c1ccccc1Br)N(Cc1ccccc1-c1ccccc1)c1ccncc1 [Example 121, N-Biphenyl-2-ylmethyl-2-bromo-N-pyridin-4-yl-benzamide]
[1]
  IC50: > 50 µM
[2]; Homo sapiens
  IC50: 3.8 µM

## O=C(c1ccccc1OCc1ccccc1)N(Cc1ccccc1-c1ccccc1)c1ccncc1 [Example 123, 2-Benzyloxy-N-biphenyl-2-ylmethyl-N-pyridin-4-yl-benzamide]
[1]
  IC50: > 50 µM
[2]; Homo sapiens
  IC50: 2.3 µM

## CCCCOc1ccc(N(Cc2ccc(C(C)(C)C)cc2)C(=O)CN(CC)CC)cn1 [Example 83, N-(6-Butoxy-pyridin-3-yl)-N-(4-tert-butyl-benzyl)-2-diethylamino-acetamide]
[1]
  IC50: > 50 µM
[2]; Homo sapiens
  IC50: 34 µM

## Cc1ccsc1C(=O)N(Cc1ccc2c(c1)C(C)(C)CCC2(C)C)c1ccc(I)cc1 [Example 59, 3-Methyl-thiophene-2-carboxylic acid (4-iodo-phenyl)-(5,5,8,8-tetramethyl-5,6,7,8-tetrahydro-naphthalen-2-ylmethyl)-amide]
[1]
  IC50: > 50 µM
[2]; Homo sapiens
  IC50: 41.1 µM

## O=C(c1sc2ccccc2c1Cl)N(Cc1ccccc1-c1ccccc1)c1cccnc1 [Example 115, 3-Chloro-benzo[b]thiophene-2-carboxylic acid biphenyl-2-ylmethyl-pyridin-3-yl-amide]
[1]
  IC50: > 50 µM
[2]; Homo sapiens
  IC50: 23.5 µM

## O=C(c1ccccc1OCc1ccccc1)N(Cc1cccnc1)Cc1ccccc1-c1ccccc1 [Example 101, 2-Benzyloxy-N-biphenyl-2-ylmethyl-N-pyridin-3-ylmethyl-benzamide]
[1]
  IC50: > 50 µM
[2]; Homo sapiens
  IC50: 10.8 µM

## O=C(c1ccccc1Br)N(Cc1cccnc1)Cc1ccccc1-c1ccccc1 [Example 98, N-Biphenyl-2-ylmethyl-2-bromo-N-pyridin-3-ylmethyl-benzamide]
[1]
  IC50: > 50 µM
[2]; Homo sapiens
  IC50: 8.5 µM

## COc1ccc(CN(C(=O)c2ccccc2)c2ccccc2)cc1 [Example 60, N-(4-Methoxy-benzyl)-N-phenyl-benzamide]
[1]
  IC50: > 50 µM
[2]; Homo sapiens
  IC50: 28.8 µM

## CCOc1ccc(C(=O)N(Cc2ccccc2-c2ccccc2)c2ccncc2)cc1 [Example 124, N-Biphenyl-2-ylmethyl-4-ethoxy-N-pyridin-4-yl-benzamide]
[1]
  IC50: > 50 µM
[2]; Homo sapiens
  IC50: 3.3 µM

## COc1cc(C(=O)N(Cc2ccc(C(C)(C)C)cc2)c2cnc3ccccc3c2)cc(OC)c1OC [Example 63, N-(4-tert-Butyl-benzyl)-3,4,5-trimethoxy-N-quinolin-3-yl-benzamide]
[1]
  IC50: > 50 µM
[2]; Homo sapiens
  IC50: 25.1 µM

## O=C(c1ccccc1[N+](=O)[O-])N(Cc1ccccc1-c1ccccc1)c1cccnc1 [Example 117, N-Biphenyl-2-ylmethyl-2-nitro-N-pyridin-3-yl-benzamide]
[1]
  IC50: > 50 µM
[2]; Homo sapiens
  IC50: 18 µM

## COc1ccc(CN(C(=O)c2ccccc2SCc2ccccc2)c2ccc(OC)cc2)cc1 [Example 40, 2-Benzylsulfanyl-N-(4-methoxy-benzyl)-N-(4-methoxy-phenyl)-benzamide]
[1]
  IC50: > 50 µM
[2]; Homo sapiens
  IC50: 60.4 µM
